Measurements as given in a melting point compilation (Tetko et al.; mined from patent text by program, amines drawn as free bases though some values may be those of a salt).

Compound	melting point
N#Cc1ccc(N2C(=O)C3=CCCN3C2=O)c2ccccc12	230 to 232 °C
CC1(C)CCC(C)(C)c2cc(Oc3ccc4c(CO)cccc4c3)ccc21	131 to 133 °C
CCOC(=O)C1=C(CCl)N2CCOC2(C)C(C(=O)OC)C1c1ccccc1Cl (stereo unspecified)	142 to 143 °C
O=C(O)CCCCn1ccc2cc([N+](=O)[O-])ccc21	141 to 142 °C
C#CC(C)(O)C1CCC2C3CCC4CC(F)CCC4(C)C3CCC21C (stereo unspecified)	230 to 231 °C
CCCNc1nc(N)c2ncn(C3CCCCC3)c2n1	155 to 156 °C
Cc1cc(C(=O)N2Cc3cccn3Cc3ccccc32)ccc1NC(=O)c1ccccc1C	125 to 130 °C
OCCC#Cc1ccc(-c2ccc(F)cc2)cc1	134 °C
CC(=O)N(C)c1ccc2sc3ccccc3c(=O)c2c1	246 to 248 °C
CCCOC(=O)N=P(c1ccccc1)(c1ccccc1)c1ccccc1	90 to 91 °C
N#CCCNC(=O)c1cccc(-c2cccc(Oc3ccc4c(c3)CCC4)n2)c1	122 to 123 °C
CS(=O)(=O)OCCCCCCNC(=O)CNC(=O)OCc1ccccc1	82 to 83 °C
CN1CCSC1=NCN1C(=O)CCC1=O	142 to 144 °C
CC(C)CCOc1ccc(C(=O)c2c(N)sc3c2CCN(Cc2ccccc2)C3)cc1	106 to 107 °C
CCOC(=O)N1Cc2ccccc2C(Oc2ccc([N+](=O)[O-])cc2)C1 (stereo unspecified)	118 to 119 °C
O=C(CCS)NC1CCCCC1	73.5 to 75.5 °C
O=C(/C=C/c1ccc(O)c(C(F)(F)F)c1)/C=C/c1ccc(O)c(C(F)(F)F)c1	233 to 234 °C
Nc1ccc(-c2cn(CCF)nn2)cc1	79 to 82 °C
O=C(O)c1cc(O)c(I)c(O)c1	245 to 248 °C
O=[N+]([O-])c1cnc(Sc2cncc(Cl)n2)s1	108 to 110 °C
CN(Cc1ccc(C2=NCCN2C(=O)OC(C)(C)C)cc1)C(=O)/C=C/CNCS(=O)(=O)c1ccc([N+](=O)[O-])cc1[N+](=O)[O-]	78 °C
CCOC(=O)COc1ccc(C(=O)CCC(=O)O)cc1Cl	137 to 139 °C
CCSN(C)C(=O)Nc1ccc(Cl)c(Cl)c1	71 °C

Compound	melting point
c1ccc(C2=NC(c3ccccn3)(c3ccccn3)N=C2c2ccccc2)cc1	214 to 216 °C
O=C(CBr)c1ccc2c(c1)CCCS2	92 to 94 °C
COc1ccc(C2Sc3cc(Oc4ccccc4)ccc3NC(=O)C2O)cc1Cl (stereo unspecified)	262 to 264 °C
Cc1ccc(N2C(=O)C(O)=C(C(=O)c3ccc(C(C)C)cc3)C2c2ccc(Cl)cc2)nn1 (stereo unspecified)	258 to 260 °C
O=C(O)CCc1cn(Cc2ccccc2)c2ccccc12	110 to 112 °C
COc1ccc(C(=O)NCCc2ccccc2C)cc1	81.8 to 82.1 °C
COCNC(=O)C1CN(C(c2ccccc2)c2ccccc2)C1	103 to 106 °C
C[C@@H]1CNCc2cc3cccc(OC(F)(F)F)c3n21	58 to 60 °C
Nc1ccc2[nH]c(C(=O)N3CC(CCl)c4c3cc(N)c3ccccc43)cc2c1 (stereo unspecified)	> 300 °C
CC(C)(C)CCC/C(=C\c1ccc(C(=O)O)cc1)Cn1ccnc1	190 to 192 °C
CCOC(=O)CCN(c1ccccc1)S(=O)(=O)c1ccc2c(c1)nc(CNc1ccc(C#N)cc1)n2C	188 to 191 °C
CCCCC1=NC2(CCCC2)C(=O)N1Cc1ccc(-c2ccccc2S(=O)(=O)Nc2onc(C)c2C)c(OCC(C)C)c1	58 to 61 °C
Cc1cccc2nnc(-c3ccccc3)c(Cl)c12	128 °C
Nc1cc(F)c(OC(F)F)cc1[N+](=O)[O-]	95 to 97.5 °C
Cn1nnnc1NCC(O)CCOc1cccc(CN2CCCCC2)c1 (stereo unspecified)	138 to 139 °C
O=c1nc(-c2ccc(Sc3ccc(Cl)cc3)nc2)sc2ccccc12	222 °C
CCC12CCC3C4CCC(=O)C=C4CCC3C1CCC2OC1CCCCO1 (stereo unspecified)	148 to 152 °C
CC(C)n1nc(-c2c(-c3ccccc3)nn3ccc(OC4CCOCC4)cc23)ccc1=O	210 to 211 °C
O=C(O)CSCCCCOc1ccccc1	48 to 50 °C
COCc1nc2c(OC)ccc(CCc3ccncc3)c2[nH]1	154 to 156 °C
CC1(C)SC2C(NC(=O)Cc3ccccc3)C(=O)N2C1c1nnn[nH]1 (stereo unspecified)	168 to 170 °C
Cc1nc(-c2ccccc2F)cn1-c1ccc(COc2ncc(C(F)(F)F)cc2Cl)cc1	109 °C

Next, values leading:

melting point	Compound
125 to 128 °C	Cc1nc(N)nc(N)c1CCC(C)c1ccc(Cl)cc1 (stereo unspecified)
103 to 105 °C	COc1ccc(CCNC(=O)Cc2ccc(-c3ccccc3)cc2)cc1OC
136 °C	COC(=O)[C@@H](C)OCC#Cc1cc(Cl)ccc1NS(=O)(=O)c1ccc2ncsc2c1
193 °C	CCOC(=O)c1cc(=O)c2c(ccc3nc(C(=O)OC)cc(Cl)c32)o1
109 to 114 °C	CCOC(=O)CSc1nc(Cl)cc(Nc2ccccc2)n1
141 to 143 °C	COC(=O)C(=C/c1cc(OC)c(OC)c(OC)c1)/C(C(N)=O)=C(/C)c1ccccc1
144 °C	CN=C(Nc1cc(Cl)cc(Cl)c1)N1CCN(c2ccc(OC(C)=O)cc2OC)CC1
73 to 74 °C	Cc1ccc(CSc2nc(C)n(C)c(=O)c2Br)cc1
227 to 228 °C	Cc1ccnc(C=NNC(N)=S)c1N
153 to 155 °C	Cc1ccc(-c2cn(C)cc(-c3ccccc3)c2=O)c(C)c1
76 to 81 °C	CCc1cnc(C2=NC(C)(C(C)C)C(=O)N2)c(C(=O)NCCCCCC(=O)O)c1 (stereo unspecified)
43.6 to 45.6 °C	NC1CCn2c(CCc3ccccc3)nc3cccc1c32 (stereo unspecified)
106 to 108 °C	Cc1cccc(Nc2cc(Cl)nc(SCC(=O)NN3CCOCC3)n2)c1C
97 to 100 °C	Cc1ccccc1CC(=NC#N)NC(NC(=O)Cc1cccc2ccccc12)C(C)(C)C (stereo unspecified)
256 to 259 °C	O=c1c2c[nH]c3c(c-2nn1-c1ccc(Cl)cc1)CN(CCc1ccccc1)CC3
102 to 104 °C	CC(C)(C#N)c1cc(CCCn2cncn2)cc(C(C)(C)C#N)c1
56 to 57 °C	Cc1ccc(S(=O)(=O)OCCC2(OC3CCCCO3)CC2)cc1 (stereo unspecified)
127 to 129 °C	Clc1ccc(N2CCN(CCCc3c4c(nn3-c3ccccc3)CCCC4)CC2)cc1
264 to 266 °C	CCOC(=O)c1ncc2[nH]c3ccc(I)cc3c2n1

melting point	Compound
202 to 203 °C	OP(O)C(C=Cc1ccccc1)NC(c1ccccc1)c1ccccc1 (stereo unspecified)
177 to 178 °C	O=C(Nc1ccc(-n2nc(C(F)(F)F)cc2C(F)(F)F)cc1)C1CC=CCC1 (stereo unspecified)
87 to 88 °C	N#Cc1nc(Cl)c(-c2cccc(Cl)c2)nc1C#N
112 to 114 °C	CCCCCSc1ccc(CN(O)C(N)=S)s1
109 to 110 °C	COc1ccc(CN(C)c2ncnc3c(N4CCOCC4)nc(N4CCC(N(C)C)CC4)nc23)cc1
205 to 208 °C	CC1(CC(=O)Nc2ccccc2)OCCc2c1[nH]c1ccccc21 (stereo unspecified)
190 °C	CN1CCOc2ccc(/C=C/C(=O)O)cc21
133 °C	CCOc1cc2c(cc1OCC)C(=C(C#N)SCC(CN1CCOCC1)OC(C)=O)NCC2 (stereo unspecified)
146 to 148 °C	CS(=O)(=O)c1ccc(C2=C(c3ccccc3)C(=NO)C2)cc1
107 to 108 °C	CSC(=NC#N)NCCCOc1cccc(CN2CCCC2)c1
263 to 265 °C	CCOC(=O)c1cnn2c1[nH]c(=O)c1cnc3c(cnn3CC)c12
160 to 163 °C	O=C(O)c1cc2c(cc1[N+](=O)[O-])OCO2
158 to 159 °C	O=C(O)c1snnc1C1CC1
95 to 99 °C	CN(C)CCCOc1c(Cl)cc(-c2nnc(CSCCOc3ccccc3)o2)cc1Cl
81 to 83 °C	Cc1nc(CC(C)C)c(CN)c(-c2ccc(Cl)cc2)c1C(=O)OC(C)(C)C
214 °C	O=C(Cc1noc2ccccc12)N[C@H]1CC[C@H](CCN2CCC(c3cccc4c3CCO4)CC2)CC1
284 to 288 °C	NC(=O)c1c[nH]c2ccc([N+](=O)[O-])cc12
91.5 to 92.6 °C	CCCCCCCCCCCCNC(=O)c1cc(Br)c(OCCn2cnnn2)c(-c2cccc(C(F)(F)F)c2)c1
114 to 116 °C	CCCCNC(=O)c1ccc(Cl)c(-n2nc(CCCC)n(Cc3ccc(Br)cc3F)c2=O)c1

melting point	Compound
104 to 106 °C	CCc1c(O)c(C(C)=O)cc2c1OC(C)(C)CC2C (stereo unspecified)
133 °C	COc1ccc(CC2CC(=O)CCN2C(=O)c2cc(C(F)(F)F)cc(C(F)(F)F)c2)cc1OC (stereo unspecified)
198 to 200 °C	CCNC(=O)N[C@H]1CC[C@H](CCN2CCN(c3cccc4c3CCC4)CC2)CC1
200 to 203 °C	COc1cccc(N2CC(=O)N(c3ccc(S(N)(=O)=O)cc3Cl)C2)c1
222 to 224 °C	CCOc1ccc2[nH]cc(C(=O)NCc3ccccn3)c(=O)c2c1
182 to 185 °C	O=C(Nc1nc(=O)n(S(=O)(=O)c2ccccc2)cc1F)Oc1ccccc1
254 to 255 °C	Cn1nc(-c2cnc(N)nc2-c2ccccc2)ccc1=O
91 to 93 °C	C=CC(=O)OCCN(CCOC(=O)C=C)c1ccc(N=Nc2ccc([N+](=O)[O-])cc2)cc1
95 to 100 °C	COC(=O)CCc1ccc(-n2cc(C)n(-c3ccc(C(=N)N)cc3)c2=O)cc1
205 to 206 °C	CCOCc1nc2c(N)nc3cc(N4CCCCC4=O)ccc3c2n1CCCOC(C)C
151 to 153 °C	O=C(c1cc(C(F)(F)F)cc(C(F)(F)F)c1)N1CCNCCC1c1ccccc1 (stereo unspecified)
127 °C	COc1nc(NCCc2ccc(OC(F)F)cc2)nc(-c2ccc(Cl)c(C(C)(C)O)c2)n1
145 to 146 °C	CC[C@H](C)C(OCc1ccccc1)[C@H]1[C@H]([N+](=O)[O-])[C@H](c2ccsc2)N[C@@H]1C(=O)NCCC(=O)O (stereo partly specified)
167 to 170 °C	CCOC(=O)CC(=O)CSc1nc2cc(Cl)c(F)cc2c(O)c1C(=O)OCC
108 to 110 °C	Cn1nnc(-c2cccnc2)n1
121 to 123 °C	CCC1CN2C(C)=Nc3c(C)nn(C)c3C2=N1 (stereo unspecified)
196 °C	CCCCc1nc2ccccn2c1Cc1ccc(-c2ccccc2C(=O)O)cc1
77 to 79 °C	CC(C)(C)c1ccc(CCOc2ncnc3ncccc23)cc1
